{
  "source": "ChEMBL document CHEMBL3882721",
  "about": "“2-phenyl benzimidazoles and imidazo-4,5|-pyridines as CDS1/CHK2-inhibitors and adjuvants to chemotherapy or radiation therapy in the treatment of cancer” (2007)",
  "note": "Active and inactive are the calls of the source. No cut-off for these calls is given here.",
  "data": [
    {"test_system": "not listed separately", "assay": "Anticlonogenic activity against ionizing radiation/chemotherapeutic agent-treated clonogenic tumor cells (unknown origin) preincubated for 12 to 48 hrs followed by growth medium addition without compound measured after 7 to 14 days by crystal violet staining-based assay relative to control", "format": "functional", "values": [
      {"smiles": "NC(=O)c1ccc2[nH]c(-c3ccc(Oc4ccc(Cl)cc4)cc3)nc2c1", "Activity": "Active"}
    ]},
    {"test_system": "spleen", "assay": "Cytoprotective activity against 137Cs gamma-radiation-induced apoptosis in C57/BL6 mouse spleen cells preincubated for 1 hr followed by irradiation measured after 6 to 24 hrs by annexin V/FITC-propidium iodide staining-based FACS analysis", "format": "functional, cell-based", "values": [
      {"smiles": "COc1ccc(Sc2ccc(-c3nc4cc(C(N)=O)ccc4[nH]3)cc2)cc1", "Activity": "Active"},
      {"smiles": "NC(=O)c1ccc2[nH]c(-c3ccc(Sc4ccc(Cl)cc4)nc3)nc2c1", "Activity": "Active"},
      {"smiles": "NC(=O)c1ccc2[nH]c(-c3ccc(Oc4ccc(I)cc4)cc3)nc2c1", "Activity": "Active"},
      {"smiles": "NC(=O)c1ccc2[nH]c(-c3ccc(Sc4ccc(O)cc4)cc3)nc2c1", "Activity": "Active"},
      {"smiles": "NC(=O)c1ccc2[nH]c(-c3ccc(Oc4ccc(Br)cc4)cc3)nc2c1", "Activity": "Active"},
      {"smiles": "NC(=O)c1ccc2[nH]c(-c3ccc(Oc4ccc(Br)c(O)c4)cc3)nc2c1", "Activity": "Active"},
      {"smiles": "COc1cc(Oc2ccc(-c3nc4cc(C(N)=O)ccc4[nH]3)cc2)ccc1Br", "Activity": "Active"},
      {"smiles": "COc1cccc(Sc2ccc(-c3nc4cc(C(N)=O)ccc4[nH]3)cc2)c1", "Activity": "Active"},
      {"smiles": "NC(=O)c1ccc2[nH]c(-c3ccc(Sc4ccc(F)c(Cl)c4)cc3)nc2c1", "Activity": "Active"},
      {"smiles": "NC(=O)c1ccc2[nH]c(-c3ccc(Oc4ccc5ccccc5c4)cc3)nc2c1", "Activity": "Active"},
      {"smiles": "NC(=O)c1ccc2[nH]c(-c3ccc(Oc4ccc(Cl)cc4)cc3)nc2c1", "Activity": "Active"},
      {"smiles": "NC(=O)c1ccc2[nH]c(-c3ccc(Oc4ccc5c(c4)OCO5)cc3)nc2c1", "Activity": "Active"},
      {"smiles": "Cc1ccc(Sc2ccc(-c3nc4cc(C(N)=O)ccc4[nH]3)cn2)cc1", "Activity": "Active"}
    ]}
  ]
}
